{"source": "patent US20240016777A1", "about": "“COMPOUNDS AND METHODS FOR TREATING VIRAL INFECTIONS” (priority 2020, published 2024)", "key": {"[1]": {"target": "T1, Mpro (Severe acute respiratory syndrome coronavirus 2 (2019-nCoV) (SARS-CoV-2), UniProt P0DTD1)", "test": "Label free mass spectrometry assay of Mpro substrate cleavage", "type": "biochemical", "conditions": "50 μM concentration"}, "[2]": {"target": "SARS-CoV-2 M^pro (Severe acute respiratory syndrome coronavirus 2 (2019-nCoV) (SARS-CoV-2), UniProt P0DTD1)", "test": "biochemical"}, "[3]": {"target": "T1, Mpro", "type": "biochemical", "conditions": "jump dilution"}, "[4]": {"tested_on": "SARS-CoV-2", "test": "Vero E6-based SARS-CoV-2 replication assay (immunofluorescence of nucleocapsid protein)", "type": "cell-based", "conditions": "Vero E6 cells"}, "[5]": {"tested_on": "SARS-CoV-2", "conditions": "human ACE2 transgenic mouse, 50-200 mg/kg, crystal form; cited from earlier work"}, "[6]": {"tested_on": "Vero E6 cells", "test": "Toxicity in Vero E6 cells / cell culture"}, "[7]": {"tested_on": "Vero E6 cells"}, "[8]": {"conditions": "compound at 17 μM, duplicates, 20 min pre-incubation, read-out: Activity (% enzyme activity by fluorescence relative to initial enzyme activity)"}, "[9]": {"conditions": "read-out: Activity (% enzyme activity by fluorescence relative to initial enzyme activity), compound at 17 μM, duplicates, 20 min pre-incubation"}}, "note": "Where two headings read alike, the source gives them in different places."}
{"smiles": "O=c1c(-c2c(O)cc(O)c3c(=O)cc(-c4ccc(O)cc4)oc23)c(-c2ccc(O)cc2)oc2cc(O)cc(O)c12", "note": "[3,8′-Biapigenin]", "values": [{"measurement": "Inhibition of Mpro activity (mass spectrometry)", "setting": "[1]", "value": "completely inhibited"}, {"measurement": "IC50", "setting": "[2]; IC50 for inhibition of Mpro", "value": "5 to 15", "unit": "µM"}]}
{"smiles": "O=c1cc(-c2ccc(O)c(-c3c(O)cc(O)c4c(=O)cc(-c5ccc(O)cc5)oc34)c2)oc2cc(O)cc(O)c12", "note": "[Amentoflavone]", "values": [{"measurement": "Reversibility of Mpro inhibition by dilution", "setting": "[3]", "value": "completely reversible"}, {"measurement": "Inhibition of Mpro activity (mass spectrometry)", "setting": "[1]", "value": "completely inhibited"}, {"measurement": "IC50", "setting": "[2]; IC50, compounds evaluated at 0.015-300 μM", "value": 8, "unit": "µM"}, {"measurement": "IC50", "setting": "[2]; IC50 for inhibition of Mpro", "value": "5 to 15", "unit": "µM"}, {"measurement": "remaining activity at 17 µM", "setting": "[2]; [8]", "value": "10 to 80", "unit": "%"}]}
{"smiles": "O=c1cc(-c2ccccc2)oc2cc(O)c(O)c(O)c12", "note": "[Baicalein]", "values": [{"measurement": "Inhibition of SARS-CoV-2 replication (in words)", "setting": "[4]", "value": "antiviral activity"}, {"measurement": "Body weight after SARS-CoV-2 infection", "setting": "[5]", "value": "prevented reduction in body weight"}, {"measurement": "Lung injury resulting from SARS-CoV-2 infection", "setting": "[5]", "value": "decreased lung injury"}]}
{"smiles": "COc1cc(-c2oc3cc(OC(C)=O)c(OC)c(OC(C)=O)c3c(=O)c2OC)ccc1OC(C)=O", "note": "[Jaceidin triacetate]", "values": [{"measurement": "Toxicity in cells", "setting": "[6]", "value": "toxic"}, {"measurement": "Inhibition of Mpro activity (mass spectrometry)", "setting": "[1]", "value": "completely inhibited"}, {"measurement": "Mpro inhibitory activity (comparison in words)", "setting": "[2]", "value": "comparable to or better than the previously described Mpro inhibitors baicalein and myricetin"}, {"measurement": "remaining activity at 17 µM", "setting": "[2]; [8]", "value": "< 10", "unit": "%"}, {"measurement": "IC50", "setting": "[2]; read-out: IC50 for inhibition of Mpro", "value": "5 to 15", "unit": "µM"}]}
{"smiles": "O=c1cc(-c2ccc(O)cc2)oc2cc(O)cc(O)c12", "note": "[apigenin]", "values": [{"measurement": "Reversibility of Mpro inhibition by dilution", "setting": "[3]", "value": "completely reversible"}, {"measurement": "Inhibition of SARS-CoV-2 replication (in words)", "setting": "[4]", "value": "inhibits viral replication at concentrations at doses that are not toxic"}, {"measurement": "Inhibition of SARS-CoV-2 replication at 50 μM", "setting": "[4]; 50 μM", "value": "somewhat better than baicalein"}, {"measurement": "Toxicity in cells", "setting": "[7]", "value": "some toxicity"}, {"measurement": "Mpro inhibitory activity (comparison in words)", "setting": "[2]", "value": "somewhat less potent"}, {"measurement": "IC50", "setting": "[2]; IC50 for inhibition of Mpro", "value": 17.4, "unit": "µM"}]}
{"smiles": "CC(C)=CCc1cc(-c2coc3cc(O)cc(O)c3c2=O)cc(O)c1O", "note": "[glycyrrhisoflavone]", "values": [{"measurement": "remaining activity at 17 µM", "setting": "[2]; [8]", "value": "> 80", "unit": "%"}]}
{"smiles": "C=C(C)[C@H](CC=C(C)C)Cc1c(O)c(CC=C(C)C)c(O)c2c1O[C@H](c1ccc(O)cc1O)[C@@H](O)C2=O", "note": "[kushenol M]", "values": [{"measurement": "remaining activity at 17 µM", "setting": "[2]; [9]", "value": "> 80", "unit": "%"}]}
{"smiles": "CC(C)=CCC/C(C)=C/Cc1cc(C2CC(=O)c3c(O)cc(O)cc3O2)c(O)cc1O", "note": "(centres unmarked) [kuwanon E]", "values": [{"measurement": "remaining activity at 17 µM", "setting": "[2]; [9]", "value": "10 to 80", "unit": "%"}]}
{"smiles": "C=C(C)C(O)Cc1c(O)c(CC=C(C)C)c2occ(-c3ccc(O)c(O)c3)c(=O)c2c1O", "note": "(centres unmarked) [millewanin G]", "values": [{"measurement": "remaining activity at 17 µM", "setting": "[2]; [9]", "value": "> 80", "unit": "%"}]}
{"smiles": "C=C(C)C(O)Cc1c(O)c(CC=C(C)C)c(O)c2c(=O)c(-c3ccc(O)c(O)c3)coc12", "note": "(centres unmarked) [millewanin H]", "values": [{"measurement": "remaining activity at 17 µM", "setting": "[2]; [9]", "value": "10 to 80", "unit": "%"}]}
{"smiles": "O=c1c(O)c(-c2ccc(O)cc2O)oc2cc(O)cc(O)c12", "note": "[morin]", "values": [{"measurement": "remaining activity at 17 µM", "setting": "[2]; [8]", "value": "> 80", "unit": "%"}]}
{"smiles": "O=c1c(O)c(-c2cc(O)c(O)c(O)c2)oc2cc(O)cc(O)c12", "note": "[myricetin, reference compound]", "values": [{"measurement": "Reversibility of Mpro inhibition by dilution", "setting": "[3]", "value": "resistant to dilution"}, {"measurement": "Inhibition of SARS-CoV-2 replication (in words)", "setting": "[4]", "value": "somewhat less potently than PGHG, baicalein, or apigenin"}, {"measurement": "Inhibition of SARS-CoV-2 replication (in words)", "setting": "[4]; listed as Myricetin", "value": "inhibitory activity only at 100 μM"}]}
{"smiles": "CC(C)=CCc1c(O)cc(O)c2c1O[C@H](c1ccc(O)cc1)[C@@H](O)C2=O", "note": "[neophellamuretin]", "values": [{"measurement": "remaining activity at 17 µM", "setting": "[2]; [9]", "value": "> 80", "unit": "%"}]}
{"smiles": "CC(C)=CCC/C(C)=C/Cc1c(O)ccc(C2CC(=O)c3c(O)cc(O)cc3O2)c1O", "note": "(centres unmarked) [sanggenol A]", "values": [{"measurement": "remaining activity at 17 µM", "setting": "[2]; [9]", "value": "10 to 80", "unit": "%"}]}
{"smiles": "CC(C)=CCC/C(C)=C\\Cc1c(O)cc(O)c2c1O[C@H](c1ccc(O)cc1O)CC2=O", "note": "[sophoraflavanone C]", "values": [{"measurement": "remaining activity at 17 µM", "setting": "[2]; [8]", "value": "10 to 80", "unit": "%"}, {"measurement": "IC50", "setting": "[2]; compounds evaluated at 0.015-300 μM, read-out: IC50", "value": 63, "unit": "µM"}]}
{"smiles": "CC(C)=CCc1c2c(c(O)c3c(=O)c(-c4ccc(O)cc4)coc13)C=CC(C)(C)O2", "note": "[warangalone]", "values": [{"measurement": "remaining activity at 17 µM", "setting": "[2]; [9]", "value": "10 to 80", "unit": "%"}]}
